Here are results for three compounds from PMC11310079, “Commensal production of a broad-spectrum and short-lived antimicrobial peptide polyene eliminates nasal Staphylococcus aureus” (Nature Microbiology, 2023).

The conditions of series [1]: cited from earlier work. The text has this: To our knowledge, the combination of peptide–polyene–tetramic acid moieties is unique to epifadin. […] In contrast to the ionophore act ...
For a further series, the system named is S. aureus USA300 JE2. In words: Determination of the IC (miniaturized agar diffusion assay). It is filed as cell-based, Staphylococcus aureus. Particulars: agar diffusion on inoculated TSA, 24 h 37 °C dark; IC from inhibited agar volume. On the procedure:
(§1) Instead, a miniaturized assay was developed. Molten TSA, kept below 42 °C, was inoculated with different test strains at an OD600 of 0.00125. Then, 17.5 ml was poured into Petri dishes, resulting in agar layers of ~3.16 mm thickness. After solidification, a cork borer was used to punch wells of 4-mm diameter into the agar. Thirty-five microlitres of purified epifadin in DMSO–PA (2.4 µg, 1.2 µg, 0.6 µg, 0.3 µg, 0.15 µg and 0.075 µg) was pipetted into the wells, and agar plates were incubated for 24 h at 37 °C in the dark. Diameters of the zones of inhibition were measured and the volume containing the inhibitory epifadin concentration was calculated, using the following formula for cylinder volume: Vc=πxr^2xhVc=cylindervolumeVi=πrz2xha−(πrw2xha)Vi=inhibitedvolumerz2=radius(diameter/2)zoneofinhibitionrw2=radius(diameter/2)ofwellha=heightofagar
(§2) The volume of agar showing inhibition of the test strain was then correlated with the included amount of epifadin, and the epifadin concentration necessary to inhibit test strain growth in a 1 ml volume was calculated to yield IC values. If, for example, 2.4 µg of epifadin lead to an inhibited volume of 480 µl, to inhibit a volume of 1 ml, 5 µg epifadin is needed, which corresponds to an IC of 5 μg ml^−1. These calculations were conducted for the lowest amount of epifadin that led to a zone of inhibition to minimize the necessary epifadin amounts and the calculation error due to the gradient within the inhibition zone. As a control, the same assay was used to determine the IC for vancomycin, daptomycin and lugdunin under these conditions.
Background: A growth-free zone around the sample is the usual read-out of agar diffusion tests.

A further series concerns S. aureus USA300LAC. The series is described as above. The series is classed as cell-based, Staphylococcus aureus. As to conditions: agar diffusion on inoculated TSA, 35 µl in 4-mm wells, 24 h 37 °C dark; IC from inhibited agar volume at lowest active amount. How it is done:
as §1, §2

The test system of the next series is S. aureus USA300 LAC. In words: Stability analysis of epifadin (bioactivity by agar diffusion after incubation). It is filed as physicochemical, Staphylococcus aureus. As to conditions: lugdunin 70 µg/ml in TSB, 37 °C, pH 7, light, r4-r10 = 0-6 h. On the procedure: Fig. 2 High instability of epifadin under in vivo-like conditions. S. epidermidis IVK83 culture supernatants containing epifadin were precipitated with HCl, freeze-dried and extracted with DMSO. This extract was diluted in TSB, incubated for the indicated time periods with constant shaking under the respective conditions and subsequently tested for activity towards S. aureus USA300 LAC. a, Stability of epifadin compared with other antibacterial agents under standard laboratory conditions (37 °C, pH 7, laboratory light exposure). b, In vivo-like conditions with laboratory light exposure at pH 7 (nasal condition) or pH 5.5 (skin condition) and reduced temperatures; incubation of epifadin under exclusion from light enabled further purification and activity determination. Conditions at pH 7, 37 °C and 0 h were used as reference for 100% stability. Data shown represent the mean ± s.d. of three independent experiments. Source data
The effect of different incubation conditions on the bioactivity of epifadin was analysed by agar diffusion assays on lawns of the sensitive indicator strain S. aureus USA300 LAC. To this end, liquid TSA was inoculated with an overnight culture of USA300 at an OD600 of 0.00125. After solidification of the agar, a cork borer was used to punch wells into the agar with 5 mm diameter. TSB media with 50 mM sodium citrate (pH 5 and 6) or 50 mM tris(hydroxymethyl)aminomethane (pH 8 and 9) were prepared. Epifadin-containing precipitate was dissolved in DMSO (12 mg ml^−1), and insoluble particles were removed by centrifugation. The supernatant was added to the prepared TSB media at a final concentration of 750 µg precipitate per millilitre (37.5 µg in 50 µl). Media were incubated for 6 h at 21 °C, 30 °C or 37 °C with or without laboratory light exposure and constant shaking at 500 rpm in a thermomixer (Eppendorf). As controls, 70 µg ml^−1 (3.5 µg in 50 µl) lugdunin, 24 µg ml^−1 (1.2 µg in 50 µl) gallidermin and 100 µg ml^−1 (5 µg in 50 µl) nisin were used. At different timepoints, 50 µl of each sample was pipetted into the wells of the agar plates. After incubation at 37 °C overnight, zones of inhibition were analysed with ImageJ software (version 1.8.0_112).

In the case of `CC(=O)C1=C(O)[C@@H](CC(C)C)NC1=O` [mutanocyclin], the antimicrobial activity result in series [1] is “not antimicrobial”.
Consider `CCCCCCC/C=C/C(=O)N1C(O)=C(C(C)=O)C(=O)[C@H]1CC(C)C` [reutericyclin A], for which the antimicrobial activity entry in series [1] is “antimicrobial”.
For Lugdunin, the “IC*” value in the series with S. aureus USA300 JE2 is 8.5 µg/mL; in the series with S. aureus USA300LAC, 7.3 µg/mL. The “stability (remaining antimicrobial activity, 0 h = 100%)” value came to 83.34% with S. aureus USA300 LAC (experiment 1 of 3, after 1 h incubation); 75.95% in the series on S. aureus USA300 LAC (experiment 1 of 3, after 2 h incubation); 68.18% with S. aureus USA300 LAC (experiment 1 of 3, after 3 h incubation); 72.38% in the series on S. aureus USA300 LAC (experiment 1 of 3, after 4 h incubation); 65.52% in the series with S. aureus USA300 LAC (experiment 1 of 3, after 5 h incubation); 61.66% in the series on S. aureus USA300 LAC (experiment 1 of 3, after 6 h incubation). For the same compound, the “stability (remaining antimicrobial activity, 0 h = 100%)” value stood at 81.19% in the series on S. aureus USA300 LAC (experiment 2 of 3, after 1 h incubation); 74.91% with S. aureus USA300 LAC (experiment 2 of 3, after 2 h incubation); 69.51% in the series on S. aureus USA300 LAC (experiment 2 of 3, after 3 h incubation); 68.58% with S. aureus USA300 LAC (experiment 2 of 3, after 4 h incubation); 65.27% with S. aureus USA300 LAC (experiment 2 of 3, after 5 h incubation); 69.75% with S. aureus USA300 LAC (experiment 2 of 3, after 6 h incubation). Moreover, the “stability (remaining antimicrobial activity, 0 h = 100%)” value with S. aureus USA300 LAC (experiment 3 of 3, after 1 h incubation) is given as 81.54%; in the series with S. aureus USA300 LAC (experiment 3 of 3, after 2 h incubation), 76.22%; in the series on S. aureus USA300 LAC (experiment 3 of 3, after 3 h incubation) it was 72.30%; with S. aureus USA300 LAC (experiment 3 of 3, after 4 h incubation), 70.84%; in the series with S. aureus USA300 LAC (experiment 3 of 3, after 5 h incubation) it was 67.83%; with S. aureus USA300 LAC (experiment 3 of 3, after 6 h incubation), 62.11%.
